# Where “and” joins values, the source holds several entries; their conditions need not be identical. Equal values may be shown once. Read-outs that look alike come from different tables or passages of the source.
# Legend:
# [1] = biological target: recombinant human GALK1 (Homo sapiens, UniProt P51570); assay: hGALK1 biochemical activity assay (Kinase-Glo Plus, ATP depletion)
# Method in brief: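 Turnover is measured as ATP depletion by Kinase-Glo Plus luminescence after a 1 h room-temperature reaction. Compounds span 11 concentrations, 57.4 μM–0.97 nM, in final 20 mM HEPES pH 8.0 with 5 mM MgCl2. The substrate solution held 35 μM ATP; the added solution held 5 nM human or mouse GALK1 and 100 μM galactose.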
# [2] = biological target: recombinant mouse GALK1 (Mus musculus, UniProt Q9R0N0); assay: mGALK1 biochemical activity assay (Kinase-Glo Plus, ATP depletion)
# Sequence of recombinant mouse GALK1 (Q9R0N0 whole entry): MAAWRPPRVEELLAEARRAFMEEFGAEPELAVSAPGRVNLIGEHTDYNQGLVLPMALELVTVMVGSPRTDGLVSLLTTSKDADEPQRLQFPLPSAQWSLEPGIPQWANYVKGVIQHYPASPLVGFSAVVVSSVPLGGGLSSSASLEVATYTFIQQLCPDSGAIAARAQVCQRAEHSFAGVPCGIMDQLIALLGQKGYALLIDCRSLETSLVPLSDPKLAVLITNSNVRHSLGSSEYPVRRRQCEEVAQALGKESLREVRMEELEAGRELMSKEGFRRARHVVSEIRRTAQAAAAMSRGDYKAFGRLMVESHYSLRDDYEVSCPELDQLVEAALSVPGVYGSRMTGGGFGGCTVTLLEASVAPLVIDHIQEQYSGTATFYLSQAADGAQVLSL
# Method in brief: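 Recombinant GALK1 (5 nM) with 100 μM galactose; GALK1 turnover read as ATP depletion by Kinase-Glo Plus luminescence. Reaction ran 1 h at room temperature before detection reagent was added.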
# [3] = PAMPA permeability; settings: for Papp: PAMPA
# [4] = biological target: T1, hGALK1m (Homo sapiens, UniProt P51570, E253A/K252A); assay: in vitro hGALK1 activity assay of the structure-based optimisation (Example 12, Tables 17-20); format: biochemical; settings: for fold decrease of potency versus parent compound: loss of potency relative to the unsubstituted parent
# T1 construct: made in house; host or cells: E. coli HMS174
# T1 sequence (P51570 whole entry K252A/E253A): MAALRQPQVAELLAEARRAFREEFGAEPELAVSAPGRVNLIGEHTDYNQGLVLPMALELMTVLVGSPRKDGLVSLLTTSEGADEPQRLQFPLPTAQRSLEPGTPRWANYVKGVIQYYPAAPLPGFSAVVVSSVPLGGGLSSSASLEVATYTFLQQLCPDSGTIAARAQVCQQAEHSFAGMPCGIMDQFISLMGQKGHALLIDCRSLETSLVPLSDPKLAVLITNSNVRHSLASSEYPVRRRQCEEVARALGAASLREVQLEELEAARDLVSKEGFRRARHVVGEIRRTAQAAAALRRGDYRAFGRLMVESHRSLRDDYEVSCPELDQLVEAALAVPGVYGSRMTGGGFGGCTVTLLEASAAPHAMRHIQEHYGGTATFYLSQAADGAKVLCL
# Protocol: In vitro hGALK1 activity assays were performed as previously described. Liu et al., Bioorg. Med. Chem. Lett. 25(3): 721-727 (2015), which is incorporated by reference herein for the specific teachings thereof. The biochemical assay was performed by coupling the activity of recombinant human or mouse GALK1 to the Kinase-Glo Plus luminescent ATP detection kit, using ATP depletion as a measure of GALK1 turnover. Specifically, three μL/well of ATP substrate solution (35 μM ATP) in assay buffer (20 mM HEPES pH 8.0, 5 mM MgCl2, 60 mM NaCl, 1 mM DTT, 0.01% BSA final concentration) was dispensed into 1536-well assay plates (Greiner, white solid-bottom medium-binding plates). Aliquots of compound (23 nL solubilized in DMSO) were transferred to the assay plates using a Kalypsys 1536-well pintool such that 11 concentrations with 1/3 dilutions ranging from 57.4 μM-0.97 nM are tested. One μL/well of GALK-galactose solution (5 nM GALK1, 100 μM galactose) in assay buffer was then added, yielding a final reaction volume of 4 μL/well. Following a 1-hour room temperature incubation, 4 μL of Kinase-Glo Plus detection reagent was added to provide an ATP-dependent luminescent readout (final assay volume: 8 μL/well). Luminescence was detected using a ViewLux plate reader (PerkinElmer) after a 10-minute incubation, using a 1 second exposure time and 2× binning.
# The in vitro hGALK1 activity assay was performed as previously described. Liu et al., Bioorg. Med. Chem. Lett. 25(3): 721-727 (2015). For the measurement of cellular Gal-1P reduction, compounds at different concentrations were added to cultured patient fibroblast at 80% confluency. After incubating the compounds for 16 hours, 10 mM galactose was added to the culture. After another 4 hours, cells were washed with cold PBS buffer 3× and harvested for gal-1P measurement, according to the previously published method. Liu et al., Bioorg. Med. Chem. Lett. 25(3): 721-727 (2015).
# [5] = rat microsomal stability (RLM); settings: for half-life: rat, rat liver microsomes
# [6] = aqueous kinetic solubility
# [7] = Tables 2-15, 35 μM ATP, 100 μM galactose, 1 h, bracketed figure after some values (e.g. −1.2) is undefined and not reported, read-out: hGALK IC50
# [8] = recombinant human GALK1, Kinase-Glo Plus ATP depletion, read-out: hGALK
# [9] = Tables 2-15, 35 μM ATP, 100 μM galactose, 1 h, bracketed figure after some values is undefined and not reported, read-out: mGALK IC50
# [10] = recombinant mouse GALK1, Kinase-Glo Plus ATP depletion, read-out: mGALK
# [11] = ADME P: PAMPA permeability (class), Tables 17-19, class probably colour-coded, colour lost
# [12] = Tables 18-19, read-out: Max Response (%)
# [13] = Tables 18-20 and text of Example 12
# [14] = 1 h, Table 17, read-out: Efficacy
# [15] = Tables 18-19 and text of Example 12
# Sequence of recombinant human GALK1 (P51570 whole entry): as the sequence (P51570 whole entry K252A/E253A) above, with A252K, A253E counted along it
SMILES,"IC50 [1, 7]","IC50 [1, 8]","IC50 [2, 9]","IC50 [2, 10]","Papp [3, 11]",Papp ([3]; Perm. (1 × 10^−6 cm/sec)),"Emax [4, 12]","IC50 [4, 13]",fold improvement of potency (IC50) versus parent compound ([4]; increase in potency relative to the unsubstituted parent),Metab. Stabil. (m) ([5]; microsomal half-life),half-life [5],Sol. [6],Metab. Stabil. (m) ([5]; microsomal stability half-life),Sol. ([6]; aqueous kinetic solubility),"Emax [4, 14]","IC50 [4, 15]",Perm. (1 × 10^−6 cm/sec) [3],change of potency versus parent compound (in words) [4],fold decrease of potency versus parent compound [4]
"CC1=C(C(=O)NCc2cnn(C)c2)C(c2ccc(C)cc2Cl)N=C(Nc2nc3cccc(N)c3o2)N1 (racemic) [Compound 83, 2-((7-aminobenzo[d]oxazol-2-yl)amino)-4-(2-chloro-4-methylphenyl)-6-methyl-N-((1-methyl-1H-pyrazol-4-yl)methyl)-1,4-dihydropyrimidine-5-carboxamide]",220 nM,220 nM,2.17 µM,2.17 µM,–,25.3 ×10⁻⁶ cm/s,–,47 nM,–,14.13 m,–,4.47 µg/mL,–,–,–,–,–,–,–
"CC1=C(C(=O)Nc2cc(C(=O)O)ccn2)C(c2ccccc2Cl)N=C(Nc2nc3ccccc3o2)N1 (racemic) [Compound 194, 2-(2-(benzo[d]oxazol-2-ylamino)-4-(2-chlorophenyl)-6-methyl-1,4-dihydropyrimidine-5-carboxamido)isonicotinic acid]",1080 nM,1080 nM,6.85 µM,6.85 µM,< 10 ×10⁻⁶ cm/s,< 1 ×10⁻⁶ cm/s,–,970 nM,–,–,< 10 min,–,>30 m,>74 µg/mL,88%,–,–,–,–
"CC1=C(C(=O)Nc2cc(C(=O)O)ccn2)C(c2ccccc2Cl)N=C(Nc2nc3cc(C)ccc3o2)N1 (centres unmarked) [Compound 4, 2-(4-(2-chlorophenyl)-6-methyl-2-((5-methylbenzo[d]oxazol-2-yl)amino)-1,4-dihydropyrimidine-5-carboxamido)isonicotinic acid]",1370 nM,–,3.06 µM,3.06 µM,< 10 ×10⁻⁶ cm/s,–,100%,611 nM,–,>30 m,< 10 min,<1 µg/mL,–,–,–,–,<1 1 × 10^−6 cm/sec,slightly improved the potency,–
"CC1=C(C(=O)Nc2cc(C(=O)O)ccn2)C(c2ccccc2Cl)N=C(Nc2nc3ccc(C)cc3o2)N1 (centres unmarked) [Compound 6, 2-(4-(2-chlorophenyl)-6-methyl-2-((6-methylbenzo[d]oxazol-2-yl)amino)-1,4-dihydropyrimidine-5-carboxamido)isonicotinic acid]",5440 nM,–,17.2 µM,17.2 µM,< 10 ×10⁻⁶ cm/s,–,100%,–,–,>30 m,< 10 min,34.42 µg/mL,–,–,–,6900 nM,<1 1 × 10^−6 cm/sec,–,~7 fold
"CC1=C(C(=O)Nc2cc(C(=O)O)ccn2)C(c2ccccc2Cl)N=C(Nc2nc3c(Cl)cccc3o2)N1 (centres unmarked) [Compound 11, 2-(2-((4-chlorobenzo[d]oxazol-2-yl)amino)-4-(2-chlorophenyl)-6-methyl-1,4-dihydropyrimidine-5-carboxamido)isonicotinic acid]",5440 nM,–,13.7 µM,13.7 µM,< 10 ×10⁻⁶ cm/s,–,85%,–,–,>30 m,< 10 min,<1 µg/mL,–,–,–,5800 nM,<1.3 1 × 10^−6 cm/sec,–,–

# More lines, in order of falling IC50 [2, 9], values ahead:
"IC50 [1, 7]","IC50 [1, 8]","IC50 [2, 9]","IC50 [2, 10]","Papp [3, 11]",Papp ([3]; Perm. (1 × 10^−6 cm/sec)),"Emax [4, 12]","IC50 [4, 13]",fold improvement of potency (IC50) versus parent compound ([4]; increase in potency relative to the unsubstituted parent),Metab. Stabil. (m) ([5]; microsomal half-life),half-life [5],Sol. [6],Metab. Stabil. (m) ([5]; microsomal stability half-life),Sol. ([6]; aqueous kinetic solubility),"Emax [4, 14]","IC50 [4, 15]",Perm. (1 × 10^−6 cm/sec) [3],change of potency versus parent compound (in words) [4],fold decrease of potency versus parent compound [4],SMILES
7690 nM,–,21.7 µM,21.7 µM,< 10 ×10⁻⁶ cm/s,–,100%,–,–,>30 m,< 10 min,>76 µg/mL,–,–,–,5500 nM,–,–,–,"CC1=C(C(=O)Nc2cc(C(=O)O)ccn2)C(c2ccccc2Cl)N=C(Nc2nc3cc(N)ccc3o2)N1 (centres unmarked) [Compound 12, 2-(2-((5-aminobenzo[d]oxazol-2-yl)amino)-4-(2-chlorophenyl)-6-methyl-1,4-dihydropyrimidine-5-carboxamido)isonicotinic acid]"
–,6850 nM,12.2 µM,12.2 µM,< 10 ×10⁻⁶ cm/s,–,100%,–,–,>30 m,< 10 min,>79 µg/mL,–,–,–,2000 nM,<1 1 × 10^−6 cm/sec,–,–,"COc1ccc2oc(NC3=NC(c4ccccc4Cl)C(C(=O)Nc4cc(C(=O)O)ccn4)=C(C)N3)nc2c1 (centres unmarked) [Compound 5, 2-(4-(2-chlorophenyl)-2-((5-methoxybenzo[d]oxazol-2-yl)amino)-6-methyl-1,4-dihydropyrimidine-5-carboxamido)isonicotinic acid]"
–,1720 nM,8.63 µM,8.63 µM,< 10 ×10⁻⁶ cm/s,–,100%,–,–,>30 m,< 10 min,>77 µg/mL,–,–,–,1000 nM,<1 1 × 10^−6 cm/sec,did not change the potency,–,"CC1=C(C(=O)Nc2cc(C(=O)O)ccn2)C(c2ccccc2Cl)N=C(Nc2nc3cccc(F)c3o2)N1 (centres unmarked) [Compound 10, 2-(4-(2-chlorophenyl)-2-((7-fluorobenzo[d]oxazol-2-yl)amino)-6-methyl-1,4-dihydropyrimidine-5-carboxamido)isonicotinic acid]"
1090 nM,1090 nM,7.69 µM,7.69 µM,< 10 ×10⁻⁶ cm/s,868 ×10⁻⁶ cm/s,–,–,–,–,< 10 min,–,14.56 m,26.6 µg/mL,90%,770 nM,–,–,–,"CC1=C(C(=O)NCc2cn(C)cn2)C(c2ccccc2Cl)N=C(Nc2nc3ccccc3o2)N1 (racemic) [Compound 233, 2-(benzo[d]oxazol-2-ylamino)-4-(2-chlorophenyl)-6-methyl-N-((1-methyl-1H-imidazol-4-yl)methyl)-1,4-dihydropyrimidine-5-carboxamide]"
–,1930 nM,6.11 µM,6.11 µM,< 10 ×10⁻⁶ cm/s,–,100%,–,–,>30 m,< 10 min,6.3 µg/mL,–,–,–,2250 nM,–,–,more than 2 fold,"CC1=C(C(=O)Nc2cc(C(=O)O)ccn2)C(c2ccccc2Cl)N=C(Nc2nc3ccc(Cl)cc3o2)N1 (centres unmarked) [Compound 14, 2-(2-((6-chlorobenzo[d]oxazol-2-yl)amino)-4-(2-chlorophenyl)-6-methyl-1,4-dihydropyrimidine-5-carboxamido)isonicotinic acid]"
390 nM,390 nM,3.06 µM,3.06 µM,< 10 ×10⁻⁶ cm/s,< 1.5 ×10⁻⁶ cm/s,100%,136 nM,2 fold,>30 m,< 10 min,2.8 µg/mL,–,–,–,–,–,–,–,"CC1=C(C(=O)Nc2cc(C(=O)O)ccn2)C(c2ccc(C)cc2Cl)N=C(Nc2nc3ccc(F)cc3o2)N1 (racemic) [Compound 50, 2-(4-(2-chloro-4-methylphenyl)-2-((6-fluorobenzo[d]oxazol-2-yl)amino)-6-methyl-1,4-dihydropyrimidine-5-carboxamido)isonicotinic acid]"
50 nM,50 nM,0.61 µM,0.61 µM,–,410 ×10⁻⁶ cm/s,–,23 nM and 22 nM,–,–,–,–,14.08 m,<1 µg/mL,–,–,–,–,–,"CCn1cc(CNC(=O)C2=C(C)NC(Nc3nc4ccc(F)c(N)c4o3)=NC2c2ccc(C)cc2Cl)cn1 (racemic) [Compound 125, 2-((7-amino-6-fluorobenzo[d]oxazol-2-yl)amino)-4-(2-chloro-4-methylphenyl)-N-((1-ethyl-1H-pyrazol-4-yl)methyl)-6-methyl-1,4-dihydropyrimidine-5-carboxamide]"

# Reference: patent US20230158025A1 (UNIVERSITY OF UTAH RESEARCH FOUNDATION, priority 2020, published 2023)
